In US10080784B2, “Enhanced therapeutic usage of a purine nucleoside phosphorylase or nucleoside hydrolase prodrug” (SOUTHERN RESEARCH INSTITUTE, priority 2011, dated 2018):
In brackets after ≈: the same amount, converted by molar mass. Entries after “also recorded” stand apart in the source; their conditions may differ.

What was measured:
[1] = Limit of solubility of F-Ade in water; type: physicochemical; conditions: dissolved in water
[2] = tested on: parental D54 tumors (no E. coli PNP expression); assay: Intratumoral injection into parental D54 tumors (no E. coli PNP expression)
Protocol: Parental and E. coli PNP expressing D54MG (human glioma) tumor cells (2×10^7 cells) are injected subcutaneously into the flanks of nude mice (nu/nu) purchased from Charles River Laboratories (Wilmington, Mass.). D54 tumor cells stably transduced with E. coli PNP are prepared as described previously (Parker et al. Cancer Gene Therapy 2011 June; 18(6):390-8). Tumors are measured with calipers and an estimate of the weight calculated using the equation, (length×width^2)/2=mm^3, and converted to mg assuming unit density. […] Each treatment arm of each group contained at least 6 mice. Mice are monitored daily for weight loss and twice weekly for tumor dimensions. T-C (tumor growth delay) is taken as the difference in days to 2 doublings between drug-treated and saline-treated groups. The time to the evaluation point for each animal (2 doublings) is used as the end point in a Student's t-test, the Mann-Whitney rank sum test, or a life table analysis in order to statistically compare growth data between treatment groups. All procedures are performed in accordance with a protocol approved by the IACUC of Southern Research Institute. F-araAMP is obtained from Schering A.-G. (Berlin, Germany). In this and subsequent examples, F-Ade is obtained from General Intermediates of Canada, Inc. (Edmonton, Alberta, Canada). Treatments are initiated when tumors are 250 to 300 mg (˜1-1.5% of total animal weight).
In FIG. 2A, parental D54 tumor cells are mixed with D54 tumor cells that had been transduced with E. coli PNP to a final proportion in which 10% express the transgene. This 90/10 mixture is injected sc into the flanks of nude mice. Tumors are injected once per day for 3 consecutive days starting on day 14 with 150 μl of saline, 1.5 mg of F-araAMP dissolved in saline, or 3 mg of F-araAMP is dissolved in saline. […] In FIG. 2B, parental D54 tumor cells (no E. coli PNP expression) are injected sc into the flanks of nude mice. Tumors are inoculated once per day for 3 consecutive days starting on day 14 with 150 μl of saline, 3 mg F-araAMP is dissolved in saline, 0.15 mg of F-Ade dissolved in saline, 1.26 mg of F-Ade dissolved in […] DMSO, 0.63 mg of F-Ade dissolved in DMSO, or DMSO.
As noted above, the amount of F-araAMP given intratumorally (in FIG. 2A) is less than the total intraperitoneal dose described in FIG. 1. In order to investigate the impact of higher doses of F-araAMP, the F-araAMP is dissolved in DMSO, and given at concentrations well tolerated IT, but well above the maximally-tolerated dose if administered IP (Hong et al. Cancer Res. 2004; 64: 6610-6615). Three doses of 6 or 24 mg is administered by IT injection to tumors in which 10% of cells expressed E. coli PNP (FIG. 2C). Parental D54 tumor cells or mixtures of D54 tumor cells in which 10% of the cells express E. coli PNP are injected sc into the flanks of nude mice. Tumors are injected once per day for 3 consecutive days starting on day 17 with 150 μl of DMSO, 24 mg F-araAMP in DMSO, or 6 mg F-araAMP in DMSO.

E. coli PNP [3] = target: T1, E. coli PNP (Escherichia coli, UniProt P0ABP8); conditions: cited from earlier work
T1 construct: expressed in transfected cells; host or cells: D54MG human glioma cells, either stably transduced by lentivirus or transduced in vivo with adenoviral vector Ad/PNP, grown as xenografts in nude mice; Crude tumor extracts were assayed

[4] = tested on: D54 tumors in which 10% of cells express E. coli PNP; assay: F-araAMP plus radiation on D54 tumors in which 10% of cells express E. coli PNP; conditions: 3 mg F-araAMP in saline x3, radiation 4 Gy x3, 3 hours after injection
Protocol: Locally advanced solid tumors often become resistant to radiation therapy. As a test of adjuvant E. coli PNP in this setting, F-araAMP injection together with external beam radiation is investigated.
D54 tumor cells in which 10% of cells expressed E. coli PNP are injected sc into the flanks of nude mice. The tumors are treated with radiation, F-araAMP, or F-araAMP plus radiation. In two treatment groups, tumors are injected once per day for 3 consecutive days with 150 μl of either saline or 3 mg F-araAMP dissolved in saline. In two other treatment groups radiation (4 Gy) is administered once per day for 3 consecutive days 3 hours after injection of 150 μl of either saline (filled squares) or 3 mg F-araAMP dissolved in saline (open squares).

D54 tumors = assay: Radioactivity in tumors after intratumoral injection of [3H]F-araAMP, parental D54 tumors; type: in vivo, mice
Protocol: Total radioactivity is determined after injection of 3 mg [8-^3H]F-araAMP (10 μCi) into 300 mg D54 flank tumors. [8-^3H]F-araAMP is obtained from Moravek Biochemicals Inc. (Brea, Calif.). Tumors are removed from the mice at 10 minutes or 4 hours after injection and dissolved in 1 ml of Soluene 350 (Packard Instrument, Meriden, Conn.) by incubating at 55° C. for 4 hours. A portion of each extract is mixed with scintillation fluid and radioactivity determined.
In an effort to understand the pharmacodynamics of intratumoral (IT) F-araAMP, the levels of prodrug activation in parental (D54) tumors and tumors in which 10% of cells expressed E. coli PNP are monitored (Table 1). Tumor tissue is collected 10 minutes or 4 hours after IT injection of 3 mg [^3H]-F-araAMP and the amount of radioactivity remaining in the tumor mass determined.
Three mg (8,200 nmoles) of [^3H]F-araAMP (10 μCi/injection) are injected into D54 tumors or D54 tumors in which 10% of the cells express E. coli PNP as described in FIG. 2. Tumors (approximately 300 mg) are removed 10 minutes and 4 hours after injection with F-araAMP and the amount of radioactivity in each tumor determined. There are 4 tumors per group.

[5] = schedule q1d×3; cited from earlier work
[6] = tested on: D54 tumors in which 10% of the cells express E. coli PNP; assay: Intratumoral injection into D54 tumors in which 10% of cells express E. coli PNP; type: in vivo, nude mice
Protocol: Parental and E. coli PNP expressing D54MG (human glioma) tumor cells (2×10^7 cells) are injected subcutaneously into the flanks of nude mice (nu/nu) purchased from Charles River Laboratories (Wilmington, Mass.). […] Tumors are measured with calipers and an estimate of the weight calculated using the equation, (length×width^2)/2=mm^3, and converted to mg assuming unit density. […] Each treatment arm of each group contained at least 6 mice. Mice are monitored daily for weight loss and twice weekly for tumor dimensions. T-C (tumor growth delay) is taken as the difference in days to 2 doublings between drug-treated and saline-treated groups. The time to the evaluation point for each animal (2 doublings) is used as the end point in a Student's t-test, the Mann-Whitney rank sum test, or a life table analysis in order to statistically compare growth data between treatment groups. […] Treatments are initiated when tumors are 250 to 300 mg (˜1-1.5% of total animal weight).

[7] = tested on: D54 tumors that express E. coli PNP in 5% of the cells; assay: Systemic intraperitoneal F-araAMP on D54 tumors expressing E. coli PNP in 5% of cells; type: in vivo, nude mice
Protocol: Intraperitoneal treatment with F-araAMP (250 mg/kg once per day for 3 consecutive days; 167 mg/kg 3 times per day for 3 consecutive days; 100 mg/kg 5 times a day for 3 consecutive days; or vehicle control 5 times a day×3 days) began on day 17 when tumors are approximately 250 mg. […] (FIG. 1)

E. coli PNP [8] = target: T1, E. coli PNP; assay: Measurement of E. coli PNP activity in tumor extracts; type: biochemical; conditions: D54 tumors on day 20 after 2×10^11 VP Ad/PNP IT twice per day x3 days, FIG. 5A experiment
Protocol: The proportion of lentiviral transduced cells in a tumor mass is verified by measuring E. coli PNP activity in representative cancers removed from mice on the first day of drug treatment. Crude extracts are prepared as described previously (Parker et al. Human Gene Therapy 1997; 8: 1637-1644) after tumor excision from the flanks of mice. […] The formation of MeP is monitored using reverse phase HPLC. By convention, one unit of PNP activity is defined as the amount of extract necessary to cleave 1 nmole of MeP-dR per mg protein in a 1 hour period.

T1 sequence (P0ABP8 whole entry): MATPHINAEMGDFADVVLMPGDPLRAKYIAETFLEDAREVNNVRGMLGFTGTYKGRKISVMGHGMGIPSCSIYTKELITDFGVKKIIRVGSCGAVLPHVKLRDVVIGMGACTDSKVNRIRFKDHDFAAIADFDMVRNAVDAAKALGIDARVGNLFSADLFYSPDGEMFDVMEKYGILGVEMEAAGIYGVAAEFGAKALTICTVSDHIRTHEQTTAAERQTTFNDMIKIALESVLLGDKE

Nc1nc(F)nc2nc[nH]c12 [F-Ade, 2-fluoroadenine]
solubility [1]: 1000 µg/mL (≈ 6.53 mM) | Tumor growth, P versus DMSO vehicle group ([2]; 0.63 mg F-Ade in DMSO IT once per day x3, FIG. 2B): 0.011 | Antitumor effect ([2]; F-Ade 0.15 ml of 1 mg/ml in water/saline (highest possible solubility) IT): no antitumor effect; also recorded: fails to elicit antitumor activity | Antitumor effect ([2]; F-Ade in DMSO IT (0.15 ml of 8.6 mg/ml; 1.26 mg x3)): modest antitumor effect; also recorded: minimal antitumor activity | Maximally tolerated dose (MTD) ([2]; F-Ade in DMSO, three IT injections): ~1.26 mg | Decrease in body weight ([2]; three IT injections of 1.26 mg F-Ade in DMSO): 10% | Death of mice ([2]; three IT injections of 2.5 mg F-Ade in DMSO): 3 of 6 | Death of mice ([2]; three IT injections of 5 mg F-Ade in DMSO): 4 of 6

Nc1nc(F)nc2c1ncn2[C@H]1C[C@H](O)[C@@H](CO)O1 [F-dAdo, 2-F-2′-deoxyadenosine]
Substrate for E. coli PNP compared with F-araA (E. coli PNP [3]): much better substrate

Nc1nc(F)nc2c1ncn2[C@@H]1O[C@H](COP(=O)(O)O)[C@@H](O)[C@@H]1O [F-araAMP, fludarabine phosphate]
Tumor growth, P of radiation plus F-araAMP versus F-araAMP only [4]: 0.004 | Tumor growth, P of radiation plus F-araAMP versus radiation only [4]: < 0.001 | Effect on tumor growth ([2]; IT F-araAMP, FIGS. 2B, 2D and 3): no effect | Radioactivity in tumor, nmoles F-araAMP/gram of tissue (D54 tumors; 10 min after IT injection of 3 mg [3H]F-araAMP): 980 ± 730 nmoles F-araAMP/gram of tissue | Radioactivity in tumor, nmoles F-araAMP/gram of tissue (D54 tumors; 4 hours after IT injection of 3 mg [3H]F-araAMP): 31 ± 6 nmoles F-araAMP/gram of tissue | Maximally tolerated dose [5]: 750 mg/kg | Weight loss ([6]; 3 mg F-araAMP IT per injection, 3 total injections): less than 4% | Tumor growth, P versus vehicle treated group ([6]; 3 mg F-araAMP in saline IT once per day x3 from day 14, FIG. 2A): < 0.001 | Tumor growth, P versus vehicle treated group ([6]; 6 mg F-araAMP in DMSO IT once per day x3 from day 17, FIG. 2C): 0.014 | Tumor ulcerations ([6]; 6 mg F-araAMP in DMSO IT x3): no ulcerations | Tumor growth, P versus vehicle treated group ([6]; 24 mg F-araAMP in DMSO IT once per day x3 from day 17, FIG. 2C): < 0.001 | Tumors that became ulcerated ([6]; 24 mg F-araAMP in DMSO IT x3): Three of the 6 | Tumors completely regressed, mice tumor-free until day 70 ([6]; 24 mg F-araAMP in DMSO IT x3, of 6 tumors, 3 sacrificed for ulceration): 3 tumors | Decrease in body weight ([6]; F-araAMP IT at the highest dose (24 mg), recovered rapidly): 7% | Tumor growth, P of 3 mg group versus 1.5 mg group ([6]; F-araAMP in saline IT once per day x3 from day 14, FIG. 2A): 0.458 | Gross tissue damage in region surrounding the tumor ([7]; IP F-araAMP): no gross tissue damage | Decrease in body weight ([7]; IP F-araAMP, quickly regained after schedule completed): 10 to 20% | Tumor growth, P versus vehicle treated group ([7]; all IP F-araAMP groups (250 mg/kg x3, 167 mg/kg x9, 100 mg/kg x15 over 3 days), from day 17, FIG. 1): < 0.001

Ad/PNP
E. coli PNP activity in the tumors (E. coli PNP [8]): 7,500±2,000 units
